Measured values as given in the NIST ThermoML archive (doi:10.1021/je5000132).

Experiment: xn = mol fraction of the nth substance listed
Settings: for speed of sound: 100 kPa, Pulse-echo method; for speed of sound / viscosity / mass density: Liquid; for viscosity / mass density: 101 kPa; for viscosity: Concentric cylinders viscometry; for mass density: Vibrating tube method; for surface tension liquid-gas: 294.7 K, Drop volume

CC(CC(C)(C)C)CC(C)(C)C [2,2,4,6,6-pentamethylheptane] + CCCCCCCCCCCC
Settings	mass density [kg/m3]	speed of sound [m/s]	viscosity [mPa·s]
293.15 K, x1 = 0.1	748.467	1288.5	1.45
293.15 K, x1 = 0.2	748.123	1279.3	1.42
293.15 K, x1 = 0.2885	747.857	1271.4	1.4
293.15 K, x1 = 0.3998	747.387	1261.4	1.37
293.15 K, x1 = 0.4999	747.034	1251.6	1.35
293.15 K, x1 = 0.6501	746.519	1238	1.33
293.15 K, x1 = 0.7998	745.947	1223.2	1.31
293.15 K, x1 = 1	–	1203.6	–
303.15 K, x1 = 0.1	741.234	1250.3	1.22
303.15 K, x1 = 0.2	740.898	1241.1	1.2
303.15 K, x1 = 0.2885	740.654	1233.2	1.18
303.15 K, x1 = 0.3998	740.15	1223.2	1.16
303.15 K, x1 = 0.4999	739.835	1213.4	1.15
303.15 K, x1 = 0.6501	739.313	1199.6	1.13
303.15 K, x1 = 0.7998	738.715	1184.7	1.12
303.15 K, x1 = 1	–	1164.8	–
313.15 K, x1 = 0.1	733.97	1212.5	1.03
313.15 K, x1 = 0.2	733.64	1203.3	1.02
313.15 K, x1 = 0.2885	733.415	1195.5	1
313.15 K, x1 = 0.3998	732.953	1185.4	0.988
313.15 K, x1 = 0.4999	732.598	1175.7	0.977
313.15 K, x1 = 0.6501	732.066	1161.8	0.962
313.15 K, x1 = 0.7998	731.445	1146.8	0.952
313.15 K, x1 = 1	–	1126.7	–
323.15 K, x1 = 0.1	726.674	1175.3	0.898
323.15 K, x1 = 0.2	726.352	1166.2	0.885
323.15 K, x1 = 0.2885	726.139	1158.3	0.876
323.15 K, x1 = 0.3998	725.68	1148.3	0.863
323.15 K, x1 = 0.4999	725.324	1138.5	0.856
323.15 K, x1 = 0.6501	724.781	1124.6	0.844
323.15 K, x1 = 0.7998	724.136	1109.5	0.836
323.15 K, x1 = 1	–	1089.3	–
333.15 K, x1 = 0.1	719.342	1138.7	0.784
333.15 K, x1 = 0.2	719.024	1129.6	0.774
333.15 K, x1 = 0.2885	718.82	1121.7	0.766
333.15 K, x1 = 0.3998	718.363	1111.7	0.757
333.15 K, x1 = 0.4999	718.004	1101.9	0.75
333.15 K, x1 = 0.6501	717.449	1087.9	0.741
333.15 K, x1 = 0.7998	716.783	1072.8	0.734
333.15 K, x1 = 1	–	1052.5	–
343.15 K, x1 = 0.1	711.9	–	0.691
343.15 K, x1 = 0.2	711.7	–	0.683
343.15 K, x1 = 0.2885	711.5	–	0.677
343.15 K, x1 = 0.3998	710.9	–	0.668
343.15 K, x1 = 0.4999	710.6	–	0.664
343.15 K, x1 = 0.6501	710	–	0.656
343.15 K, x1 = 0.7998	709.4	–	0.651
353.15 K, x1 = 0.1	704.4	–	0.614
353.15 K, x1 = 0.2	704.1	–	0.607
353.15 K, x1 = 0.2885	703.8	–	0.603
353.15 K, x1 = 0.3998	703.5	–	0.595
353.15 K, x1 = 0.4999	703	–	0.591
353.15 K, x1 = 0.6501	702.5	–	0.584
353.15 K, x1 = 0.7998	701.8	–	0.58
363.15 K, x1 = 0.1	696.8	–	0.551
363.15 K, x1 = 0.2	696.5	–	0.545
363.15 K, x1 = 0.2885	696.3	–	0.526
363.15 K, x1 = 0.3998	695.8	–	0.534
363.15 K, x1 = 0.4999	695.4	–	0.531
363.15 K, x1 = 0.6501	694.8	–	0.525
363.15 K, x1 = 0.7998	694.1	–	0.521
373.15 K, x1 = 0.1	689	–	0.498
373.15 K, x1 = 0.2	688.8	–	0.493
373.15 K, x1 = 0.2885	688.6	–	0.49
373.15 K, x1 = 0.3998	688.1	–	0.483
373.15 K, x1 = 0.4999	687.7	–	0.481
373.15 K, x1 = 0.6501	687.1	–	0.476
373.15 K, x1 = 0.7998	686.3	–	0.472

Settings	surface tension liquid-gas [mN/m]
x1 = 0.1	24.3
x1 = 0.2	24.1
x1 = 0.2885	23.7
x1 = 0.3998	23.3
x1 = 0.4999	23.2
x1 = 0.6501	22.7
x1 = 0.7998	22.3
x1 = 1	21.8

CC(CC(C)(C)C)CC(C)(C)CC(C)(C)C (centres undefined) [2,2,4,4,6,8,8-heptamethylnonane] + CCCCCCCCCCCC
Settings	mass density [kg/m3]	speed of sound [m/s]	viscosity [mPa·s]
293.15 K, x1 = 0.103	753.263	1295.6	1.59
293.15 K, x1 = 0.1677	756.137	1294.1	1.67
293.15 K, x1 = 0.2944	761.09	1292	1.84
293.15 K, x1 = 0.4191	765.497	1290.5	2.03
293.15 K, x1 = 0.5011	768.604	1289.5	2.19
293.15 K, x1 = 0.5955	771.819	1288.5	2.4
293.15 K, x1 = 0.7585	777.128	1287.2	2.83
293.15 K, x1 = 0.8985	781.527	1286.3	3.29
293.15 K, x1 = 1	784.457	1285.7	3.7
303.15 K, x1 = 0.103	746.092	1257.5	1.32
303.15 K, x1 = 0.1677	749.065	1256.2	1.39
303.15 K, x1 = 0.2944	754.068	1254.3	1.53
303.15 K, x1 = 0.4191	758.54	1252.9	1.67
303.15 K, x1 = 0.5011	761.702	1252	1.8
303.15 K, x1 = 0.5955	764.964	1251	1.95
303.15 K, x1 = 0.7585	770.346	1249.8	2.28
303.15 K, x1 = 0.8985	774.79	1248.9	2.62
303.15 K, x1 = 1	777.761	1248.5	2.92
313.15 K, x1 = 0.103	738.895	1219.8	1.12
313.15 K, x1 = 0.1677	741.921	1218.7	1.17
313.15 K, x1 = 0.2944	747.011	1217	1.28
313.15 K, x1 = 0.4191	751.556	1215.7	1.4
313.15 K, x1 = 0.5011	754.77	1214.9	1.5
313.15 K, x1 = 0.5955	758.085	1214.1	1.63
313.15 K, x1 = 0.7585	763.538	1213	1.88
313.15 K, x1 = 0.8985	768.028	1212.2	2.14
313.15 K, x1 = 1	771.044	1211.8	2.37
323.15 K, x1 = 0.103	731.669	1182.8	0.966
323.15 K, x1 = 0.1677	734.749	1181.8	1.01
323.15 K, x1 = 0.2944	739.926	1180.3	1.1
323.15 K, x1 = 0.4191	744.546	1179.2	1.19
323.15 K, x1 = 0.5011	747.812	1178.5	1.27
323.15 K, x1 = 0.5955	751.18	1177.8	1.37
323.15 K, x1 = 0.7585	756.708	1176.8	1.57
323.15 K, x1 = 0.8985	761.266	1176.3	1.77
323.15 K, x1 = 1	764.316	1176	1.95
333.15 K, x1 = 0.103	724.407	1146.3	0.84
333.15 K, x1 = 0.1677	727.54	1145.4	0.877
333.15 K, x1 = 0.2944	732.805	1144.2	0.95
333.15 K, x1 = 0.4191	737.503	1143.3	1.03
333.15 K, x1 = 0.5011	740.821	1142.7	1.09
333.15 K, x1 = 0.5955	744.244	1142.2	1.17
333.15 K, x1 = 0.7585	749.858	1141.4	1.33
333.15 K, x1 = 0.8985	754.484	1141	1.49
333.15 K, x1 = 1	757.571	1140.8	1.63
343.15 K, x1 = 0.103	717.1	–	0.738
343.15 K, x1 = 0.1677	720.2	–	0.769
343.15 K, x1 = 0.2944	725.6	–	0.83
343.15 K, x1 = 0.4191	730.4	–	0.895
343.15 K, x1 = 0.5011	733.7	–	0.949
343.15 K, x1 = 0.5955	737.2	–	1.01
343.15 K, x1 = 0.7585	743	–	1.14
343.15 K, x1 = 0.8985	747.6	–	1.27
343.15 K, x1 = 1	750.7	–	1.39
353.15 K, x1 = 0.103	709.6	–	0.654
353.15 K, x1 = 0.1677	712.7	–	0.681
353.15 K, x1 = 0.2944	718.2	–	0.732
353.15 K, x1 = 0.4191	723.1	–	0.787
353.15 K, x1 = 0.5011	726.5	–	0.832
353.15 K, x1 = 0.5955	730.1	–	0.885
353.15 K, x1 = 0.7585	736	–	0.994
353.15 K, x1 = 0.8985	740.7	–	1.1
353.15 K, x1 = 1	743.8	–	1.19
363.15 K, x1 = 0.103	702	–	0.585
363.15 K, x1 = 0.1677	705.3	–	0.608
363.15 K, x1 = 0.2944	710.8	–	0.652
363.15 K, x1 = 0.4191	715.8	–	0.698
363.15 K, x1 = 0.5011	719.2	–	0.737
363.15 K, x1 = 0.5955	722.9	–	0.782
363.15 K, x1 = 0.7585	728.9	–	0.873
363.15 K, x1 = 0.8985	733.6	–	0.963
363.15 K, x1 = 1	736.8	–	1.04
373.15 K, x1 = 0.103	694.5	–	0.528
373.15 K, x1 = 0.1677	697.8	–	0.548
373.15 K, x1 = 0.2944	703.5	–	0.586
373.15 K, x1 = 0.4191	708.5	–	0.626
373.15 K, x1 = 0.5011	712	–	0.659
373.15 K, x1 = 0.5955	715.8	–	0.697
373.15 K, x1 = 0.7585	721.8	–	0.775
373.15 K, x1 = 0.8985	726.6	–	0.85
373.15 K, x1 = 1	729.9	–	0.914

Settings	surface tension liquid-gas [mN/m]
x1 = 0.1677	24.8
x1 = 0.2944	24.9
x1 = 0.4191	24.6
x1 = 0.5011	24.6
x1 = 0.5955	24.3
x1 = 0.7585	24.2
x1 = 0.8985	24.2
x1 = 1	24
